Earlier results in patent US8021659B2, “Coenzyme Q10, lactoferrin and angiogenin compositions and uses thereof” (Naidu LP, priority 2006, dated 2011).
Where two headings read alike, the source gives them in different places.

Experiments:
[1] = human plasma

Which elimination half-life (excretion primarily through the biliary tract) does the source give for `COC1=C(OC)C(=O)C(C/C=C(\C)CC/C=C(\C)CC/C=C(\C)CC/C=C(\C)CC/C=C(\C)CC/C=C(\C)CC/C=C(\C)CC/C=C(\C)CC/C=C(\C)CCC=C(C)C)=C(C)C1=O` [CoQ-10, 2,3-dimethoxy-5-methyl-6-decaprenyl-1,4-benzoquinone] here?
The elimination half-life was “approximately 34 hours”.

And the “time to peak levels of CoQ-10 in the plasma” value (following oral administration)?
The value was 5 to 10 h.

What about the “orally administered CoQ-10 excreted in the feces” value (oral administration) of the same compound?
Its value is “more than 60%”.

And the serum concentrations (regular doses of 30-60 mg/day)?
The serum concentrations was 700 to 1000 ng/mL.

What about the serum concentrations (therapeutic doses of 100-200 mg/day) of the same compound?
The serum concentrations was 2000 to 3000 ng/mL.

For “AGN: 14-kDa, basic heparin-binding protein and a member of the pancreatic ribonuclease superfamily”, which “half-life (turnover rate)” value [1] is on record?
Its value is less than 5 min.
